Test results as given in ChEMBL document CHEMBL1909046, “DrugMatrix in vitro pharmacology data”.

Key:
[1] = biological target: Voltage-gated inwardly rectifying potassium channel KCNH2 (Homo sapiens, UniProt Q12809); details: hek293; also: in other assays of this panel Not Active means under 50% inhibition at 10 µM
[2] = biological target: T1, Neuropeptide Y receptor type 2 (Homo sapiens, UniProt P49146); format: cell membranes, Membrane; details: kan-ts; also: in other assays of this panel Not Active means under 50% inhibition at 10 µM
T1 sequence (P49146 whole entry): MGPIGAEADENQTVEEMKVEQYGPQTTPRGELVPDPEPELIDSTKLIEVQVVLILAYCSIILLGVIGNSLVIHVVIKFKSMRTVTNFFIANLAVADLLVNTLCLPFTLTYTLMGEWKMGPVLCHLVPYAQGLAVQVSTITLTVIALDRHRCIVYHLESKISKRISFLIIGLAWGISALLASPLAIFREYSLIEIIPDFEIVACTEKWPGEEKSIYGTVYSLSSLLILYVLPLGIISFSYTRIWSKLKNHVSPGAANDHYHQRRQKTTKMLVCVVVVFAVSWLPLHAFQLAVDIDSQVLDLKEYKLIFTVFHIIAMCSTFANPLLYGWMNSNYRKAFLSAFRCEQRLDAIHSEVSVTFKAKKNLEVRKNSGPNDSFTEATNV

[3] = DRUGMATRIX: Sigma2 radioligand binding (ligand: [3H] Ifenprodil); format: cell membranes, Rattus norvegicus, Wistar, Brain, Membrane; details: Not Active = under 50% inhibition at 10 µM
Progesterone receptor = biological target: T2, Progesterone receptor (Bos taurus, UniProt Q690N0); assay: DRUGMATRIX: Progesterone radioligand binding (ligand: [3H] R-5020); format: tissue-based, Uterus; details: Not Active = under 50% inhibition at 10 µM
T2 sequence (Q690N0 whole entry): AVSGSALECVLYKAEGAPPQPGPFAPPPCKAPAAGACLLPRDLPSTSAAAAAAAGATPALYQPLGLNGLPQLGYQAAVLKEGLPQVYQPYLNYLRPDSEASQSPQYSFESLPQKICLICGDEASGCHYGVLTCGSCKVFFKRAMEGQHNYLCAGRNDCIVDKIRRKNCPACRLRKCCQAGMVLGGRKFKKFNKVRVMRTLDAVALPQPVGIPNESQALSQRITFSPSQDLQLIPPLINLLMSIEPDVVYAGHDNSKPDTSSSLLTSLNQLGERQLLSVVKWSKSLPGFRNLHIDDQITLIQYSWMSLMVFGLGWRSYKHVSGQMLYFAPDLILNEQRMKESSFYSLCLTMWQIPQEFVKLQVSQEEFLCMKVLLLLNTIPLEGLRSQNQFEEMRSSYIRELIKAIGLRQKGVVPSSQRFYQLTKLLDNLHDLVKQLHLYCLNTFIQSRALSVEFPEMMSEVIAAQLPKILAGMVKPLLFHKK

[4] = biological target: T3, C-X-C chemokine receptor type 2 (Homo sapiens, UniProt P25025); format: cell membranes, Membrane; details: cho-k1; also: in other assays of this panel Not Active means under 50% inhibition at 10 µM
T3 sequence (P25025 whole entry): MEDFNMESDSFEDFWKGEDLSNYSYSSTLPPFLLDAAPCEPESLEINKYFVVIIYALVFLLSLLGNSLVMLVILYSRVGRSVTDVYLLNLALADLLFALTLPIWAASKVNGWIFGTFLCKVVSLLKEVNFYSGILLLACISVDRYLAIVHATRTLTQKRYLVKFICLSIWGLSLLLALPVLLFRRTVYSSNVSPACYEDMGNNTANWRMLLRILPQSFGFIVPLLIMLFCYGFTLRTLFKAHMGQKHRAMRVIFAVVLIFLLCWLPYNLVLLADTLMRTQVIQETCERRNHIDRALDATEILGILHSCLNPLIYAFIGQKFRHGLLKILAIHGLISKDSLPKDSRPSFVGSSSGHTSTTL

Cytochrome P450 2C19 = Cytochrome P450 2C19 (Homo sapiens, UniProt P33261); details: bti-tn-5b1-4; also: in other assays of this panel Not Active means under 50% inhibition at 10 µM
[5] = DRUGMATRIX: Calcium Channel Type L, Phenylalkylamine radioligand binding (ligand: [3H] (-)-Desmethoxyverapamil (D-888)); format: cell membranes, Rattus norvegicus, Wistar, Brain, Membrane; details: Not Active = under 50% inhibition at 10 µM

Voltage-gated inwardly rectifying potassium channel KCNH2, sequence (Q12809 whole entry): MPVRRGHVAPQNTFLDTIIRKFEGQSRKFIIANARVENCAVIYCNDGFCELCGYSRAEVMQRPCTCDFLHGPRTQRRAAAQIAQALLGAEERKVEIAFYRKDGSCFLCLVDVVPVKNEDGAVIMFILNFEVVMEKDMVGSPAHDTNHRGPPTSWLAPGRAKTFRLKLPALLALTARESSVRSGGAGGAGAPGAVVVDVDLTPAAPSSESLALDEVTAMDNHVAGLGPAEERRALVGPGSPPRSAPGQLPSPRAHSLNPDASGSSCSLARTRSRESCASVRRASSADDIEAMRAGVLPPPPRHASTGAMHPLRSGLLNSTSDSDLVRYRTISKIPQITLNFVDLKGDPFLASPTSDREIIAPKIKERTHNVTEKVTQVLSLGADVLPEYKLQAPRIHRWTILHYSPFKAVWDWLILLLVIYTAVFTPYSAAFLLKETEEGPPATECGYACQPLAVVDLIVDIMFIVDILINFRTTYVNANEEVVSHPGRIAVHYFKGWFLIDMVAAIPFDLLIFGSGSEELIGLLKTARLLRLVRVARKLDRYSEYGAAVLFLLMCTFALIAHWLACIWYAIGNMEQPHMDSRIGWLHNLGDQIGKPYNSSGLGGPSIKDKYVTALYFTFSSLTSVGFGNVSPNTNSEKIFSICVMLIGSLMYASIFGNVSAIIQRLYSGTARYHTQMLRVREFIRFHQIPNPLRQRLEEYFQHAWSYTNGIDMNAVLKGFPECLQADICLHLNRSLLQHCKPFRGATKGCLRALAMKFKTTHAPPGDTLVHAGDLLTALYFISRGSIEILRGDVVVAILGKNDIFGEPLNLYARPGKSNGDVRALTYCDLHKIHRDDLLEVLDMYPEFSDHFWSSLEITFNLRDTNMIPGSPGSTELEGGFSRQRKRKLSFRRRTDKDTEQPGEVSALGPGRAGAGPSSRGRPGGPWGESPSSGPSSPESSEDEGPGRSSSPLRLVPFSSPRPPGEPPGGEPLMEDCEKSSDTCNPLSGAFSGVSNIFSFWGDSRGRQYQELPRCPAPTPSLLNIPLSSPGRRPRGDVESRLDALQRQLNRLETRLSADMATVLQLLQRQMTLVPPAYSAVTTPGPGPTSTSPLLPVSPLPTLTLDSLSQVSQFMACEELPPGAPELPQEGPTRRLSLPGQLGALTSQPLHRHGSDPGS
Cytochrome P450 2C19, sequence (P33261 whole entry): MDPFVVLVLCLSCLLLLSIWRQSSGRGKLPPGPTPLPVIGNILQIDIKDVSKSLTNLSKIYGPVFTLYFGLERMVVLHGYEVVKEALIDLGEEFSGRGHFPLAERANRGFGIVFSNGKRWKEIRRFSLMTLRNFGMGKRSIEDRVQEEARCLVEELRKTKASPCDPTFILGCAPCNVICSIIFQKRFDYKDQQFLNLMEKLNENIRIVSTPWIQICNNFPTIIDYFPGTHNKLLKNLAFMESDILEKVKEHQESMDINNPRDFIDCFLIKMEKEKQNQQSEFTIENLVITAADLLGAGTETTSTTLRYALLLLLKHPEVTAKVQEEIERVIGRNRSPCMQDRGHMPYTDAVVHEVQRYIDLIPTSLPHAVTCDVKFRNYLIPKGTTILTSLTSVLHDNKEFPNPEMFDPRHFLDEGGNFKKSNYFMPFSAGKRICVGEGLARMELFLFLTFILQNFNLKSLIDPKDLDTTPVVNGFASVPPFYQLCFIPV

Row | Compound | IC50 [1] | Ki [1] | IC50 [2] | IC50 [3] | Ki [3] | IC50 (Progesterone receptor) | IC50 [4] | IC50 (Cytochrome P450 2C19) | Ki (Cytochrome P450 2C19) | IC50 [5] | Ki [5] | IC50 (Progesterone receptor; read-out: IC50) | Ki (Progesterone receptor; read-out: Ki) | IC50 ([5]; read-out: IC50) | Ki ([5]; read-out: Ki) | Ki [2] | Ki (Progesterone receptor) | Ki [4]
1 | Cc1cccc(C)c1NC(=O)C1CCCCN1C (stereo not given) [MEPIVACAINE] | Not Active | Not Active | Not Active | Not Active | Not Active | Not Active | Not Active | Not Active | Not Active | Not Active | Not Active |  |  |  |  |  |  | 
2 | CN(C)C(=N)NC(=N)N [METFORMIN] | Not Active | Not Active | Not Active | Not Active | Not Active | Not Active | Not Active | Not Active | Not Active | Not Active | Not Active |  |  |  |  |  |  | 
3 | CC(C)(C)NCC(O)COc1cccc2c1CC(O)C(O)C2 (stereo not given) [NADOLOL] | Not Active | Not Active | Not Active | Not Active | Not Active | Not Active | Not Active | Not Active | Not Active | Not Active | Not Active |  |  |  |  |  |  | 
4 | C[C@]12CC[C@H]3[C@@H](CCC4=CC(=O)CC[C@@H]43)[C@@H]1CC[C@@H]2O [NANDROLONE] | Not Active | Not Active | Not Active | Not Active | Not Active |  | Not Active | Not Active | Not Active | Not Active | Not Active | 172 nM | 22.4 nM |  |  |  |  | 
5 | CN(C)C(=O)Oc1cccc([N+](C)(C)C)c1.[Br-] [NEOSTIGMINE BROMIDE] | Not Active | Not Active | Not Active | Not Active | Not Active | Not Active | Not Active | Not Active | Not Active | Not Active | Not Active |  |  |  |  |  |  | 
6 | NC(=O)c1cccnc1 [NIACINAMIDE] | Not Active | Not Active | Not Active | Not Active | Not Active | Not Active | Not Active | Not Active | Not Active | Not Active | Not Active |  |  |  |  |  |  | 
7 | CS(=O)(=O)Nc1ccc([N+](=O)[O-])cc1Oc1ccccc1 [NIMESULIDE] | Not Active | Not Active | Not Active | Not Active | Not Active | Not Active | Not Active | Not Active | Not Active | Not Active | Not Active |  |  |  |  |  |  | 
8 | CN1C(=O)CN=C(c2ccccc2)c2cc([N+](=O)[O-])ccc21 [NIMETAZEPAM] | Not Active | Not Active | Not Active | Not Active | Not Active | Not Active | Not Active | Not Active | Not Active | Not Active | Not Active |  |  |  |  |  |  | 
9 | C[C@@H]1O[C@@H](O[C@H]2C[C@@H](O)[C@]3(CO)[C@H]4[C@H](O)C[C@]5(C)[C@@H](C6=CC(=O)OC6)CC[C@]5(O)[C@@H]4CC[C@]3(O)C2)[C@H](O)[C@H](O)[C@H]1O [OUABAIN] | Not Active | Not Active | Not Active | Not Active | Not Active | Not Active | Not Active | Not Active | Not Active | Not Active | Not Active |  |  |  |  |  |  | 
10 | NC(=O)N1c2ccccc2CC(=O)c2ccccc21 [OXCARBAZEPINE] | Not Active | Not Active | Not Active | Not Active | Not Active | Not Active | Not Active | Not Active | Not Active | Not Active | Not Active |  |  |  |  |  |  | 
11 | COc1ccnc(C[S+]([O-])c2nc3ccc(OC(F)F)cc3[nH]2)c1OC (stereo not given) [PANTOPRAZOLE] | Not Active | Not Active | Not Active | Not Active | Not Active | Not Active | Not Active | Not Active | Not Active | Not Active | Not Active |  |  |  |  |  |  | 
12 | CCc1ccc(CCOc2ccc(CC3SC(=O)NC3=O)cc2)nc1 (stereo not given) [PIOGLITAZONE] | Not Active | Not Active | Not Active | Not Active | Not Active | Not Active | Not Active | Not Active | Not Active | Not Active | Not Active |  |  |  |  |  |  | 
13 | CCCNC(C)C(=O)Nc1ccccc1C (stereo not given) [PRILOCAINE] | Not Active | Not Active | Not Active | Not Active | Not Active | Not Active | Not Active | Not Active | Not Active | Not Active | Not Active |  |  |  |  |  |  | 
14 | CCN(CC)CCCC(C)Nc1c2ccc(Cl)cc2nc2ccc(OC)cc12 (stereo not given) [QUINACRINE] | Not Active | Not Active | Not Active | Not Active | Not Active | Not Active | Not Active | Not Active | Not Active |  |  |  |  | 739 nM | 719 nM |  |  | 
15 | CC[C@]1(O)C[C@@H]2CN(CCc3c([nH]c4ccccc34)[C@@](C(=O)OC)(c3cc4c(cc3OC)N(C)[C@H]3[C@@](O)(C(N)=O)[C@H](O)[C@]5(CC)C=CCN6CC[C@]43[C@@H]65)C2)C1 [VINDESINE] | Not Active | Not Active | Not Active | Not Active | Not Active | Not Active | Not Active | Not Active | Not Active | Not Active | Not Active |  |  |  |  |  |  | 
16 | CCN(C(C)=O)c1cccc(-c2ccnc3c(C#N)cnn23)c1 [ZALEPLON] | Not Active | Not Active | Not Active | Not Active | Not Active | Not Active | Not Active | Not Active | Not Active | Not Active | Not Active |  |  |  |  |  |  | 
17 | COBALTOUS CHLORIDE | Not Active | Not Active | Not Active | Not Active | Not Active | Not Active | Not Active | Not Active | Not Active | Not Active | Not Active |  |  |  |  | Not Active | Not Active | Not Active
18 | COLISTIN | Not Active | Not Active | Not Active | Not Active | Not Active | Not Active | Not Active | Not Active | Not Active | Not Active | Not Active |  |  |  |  | Not Active | Not Active | Not Active
